One data set concerns HEK-293 cells. As to the kind of experiment: MTS cytotoxicity assay HEK-293. In kind it is cell-based, human. To be noted: 72 h incubation, 0.1–100 μM. (In general: Formazan colour is commonly taken as a measure of viable cells.)
The target of data set [1] is T1, CYP3A4 (Homo sapiens, UniProt P08684). As to the kind of experiment: biochemical.
Procedure: (§1) Drug-drug interactions (DDI) – the influence on CYP3A4 activity
(§2) The luminescent CYP3A4 P450-Glo™ assay and protocol were provided by Promega (Madison, WI, USA)
(§3) was obtained from Sigma-Aldrich (St. Louis, USA). The enzymatic reactions were performed in white
(§4) polystyrene, flat-bottom Nunc™ MicroWell™ 96-Well Microplates (Thermo Scientific, Waltham, MA
(§5) USA). The luminescence signal was measured with a microplate reader in luminescence mode (EnSpire,
PerkinElmer, Waltham, MA USA).
The final concentrations of 1e and
to calculate IC50 values.
The test system of another data set is α1. As to the kind of experiment: Eurofins Cerep binding screen α1. Particulars: 10^−6 M.
Data set [2] can be described thus: Metabolic stability in human liver microsomes. In kind it is in vitro ADME. Particulars: for CLint scaled at 50 μM: human, read-out: Clint, metabolic clearance. (In general: Liver microsomes are vesicles of endoplasmic reticulum, rich in cytochrome P450 enzymes.)
Procedure: The in vitro evaluation of metabolic stability was performed by using human liver microsomes
(HLMs) (Sigma-Aldrich, St. Louis, MO, USA). The reaction mixtures consisted of 50 μM of tested
compounds with microsomes (1 mg/ml) in 10 mM tris-HCl buffer.
preincubation, the 50 µL of NADPH Regeneration System (Promega, Madison, WI, USA) was
added to initiate the reaction. The reactions were terminated by the addition of the cold methanol
The mixtures were centrifuged
The course of reaction was followed by using the
analyte/IS peak height ratio values.
Mass spectra were recorded on a UPLC-MS/MS system consisted of a Waters ACQUITY® UPLC® (Waters Corporation, Milford, MA, USA) coupled to a Waters TQD mass spectrometer
(electrospray ionization mode ESI-tandem quadrupole). Chromatographic separations were carried
particle size, equipped with Acquity UPLC BEH C18 VanGuard pre-column; 2.1 × 5 mm, and
The column was maintained at 40 °C, and eluted under gradient conditions
acid (0.1%, v/v); eluent B: acetonitrile/formic acid (0.1%, v/v). Chromatograms were made using
sampling rate 20 points/s. MS detection settings of Waters TQD mass spectrometer were as
600 L h−1, cone gas flow 100 L h−1, capillary potential 3.00 kV, cone potential 40 V. Nitrogen was
used for both nebulizing and drying gas. The data were obtained in a scan mode ranging from 50 to
2000 m/z in time 1.0 s intervals. Data acquisition software was MassLynx V 4.1 (Waters). The
In the next data set the target is T2, 5-HT5A (Homo sapiens, UniProt P47898).
T2 construct: Eurofins Cerep (contract screen)
As to the kind of experiment: Eurofins Cerep binding screen 5-HT5A. To be noted: 10^−6 M; read-out: % Inhibition of control binding 5-HT5A.

The next data set deals with HepG2 cells. As to the kind of experiment: MTS cytotoxicity assay HepG2. To be noted: 72 h incubation, 0.1–100 μM. Format: cell-based.
The next data set deals with human 5-HT7 receptor (Homo sapiens, UniProt P34969). As to the kind of experiment: Functional assay, cAMP production (TR-FRET) in HEK293 cells overexpressing 5-HT7R. In kind it is cell-based. Particulars: for EC50: hydrochloride salts.
A further data set concerns the target T3, CB1 (Homo sapiens, UniProt P21554).
T3 construct: Eurofins Cerep (contract screen)
As to the kind of experiment: Eurofins Cerep binding screen CB1. Particulars: 10^−6 M; read-out: % Inhibition of control binding CB1.

Another data set has as its target T4, 5-HT2B (Homo sapiens, UniProt P41595).
T4 construct: Eurofins Cerep (contract screen)
As to the kind of experiment: Eurofins Cerep binding screen 5-HT2B. Particulars: read-out: % Inhibition of control binding 5-HT2B; for inhibition at 1 µM: 10^−6 M (1 µM); for inhibition at 0.01 µM: 10^−8 M (10 nM).

Another data set concerns the target human serotonin 5-HT7bR (Homo sapiens, UniProt P34969). As to the kind of experiment: Radioligand binding, [3H]-5-CT displacement. Particulars: for Ki: read-out: K i (5-HT7R).
Another data set addresses T5, D3 (Homo sapiens, UniProt P35462).
T5 construct: Eurofins Cerep (contract screen)
As to the kind of experiment: Eurofins Cerep binding screen D3. Particulars: 10^−6 M; read-out: % Inhibition of control binding D3.

The target in the next data set is T6, α2C (Homo sapiens, UniProt P18825).
T6 construct: Eurofins Cerep (contract screen)
T6 sequence (P18825 1-462): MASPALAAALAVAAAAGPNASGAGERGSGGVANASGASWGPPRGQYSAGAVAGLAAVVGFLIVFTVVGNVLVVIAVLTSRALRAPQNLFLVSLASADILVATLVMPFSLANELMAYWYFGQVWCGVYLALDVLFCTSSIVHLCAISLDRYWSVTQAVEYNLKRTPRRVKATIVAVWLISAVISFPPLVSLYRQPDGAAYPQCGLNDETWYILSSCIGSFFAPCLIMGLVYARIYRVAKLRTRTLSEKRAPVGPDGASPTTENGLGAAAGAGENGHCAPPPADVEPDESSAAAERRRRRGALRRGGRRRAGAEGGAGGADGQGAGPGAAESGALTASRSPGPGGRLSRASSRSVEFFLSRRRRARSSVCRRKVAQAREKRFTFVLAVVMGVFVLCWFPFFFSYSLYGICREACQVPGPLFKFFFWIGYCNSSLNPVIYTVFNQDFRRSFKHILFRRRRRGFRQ
As to the kind of experiment: Eurofins Cerep binding screen α2C. Particulars: 10^−6 M; read-out: % Inhibition of control binding α2C.

Data set [3] deals with T1, CYP3A4. As to the kind of experiment: in vitro. Particulars: CYP3A4 enzyme (Promega P450-Glo luminescent assay).
Procedure: as §1, §2, §3, §4, §5
PerkinElmer, Waltham, MA USA).
The final concentrations of 1e and
to calculate IC50 values.
The next data set addresses T7, 5-HT1B (Homo sapiens, UniProt P28222).
T7 construct: Eurofins Cerep (contract screen)
As to the kind of experiment: Eurofins Cerep binding screen 5-HT1B. To be noted: 10^−6 M; read-out: % Inhibition of control binding 5-HT1B.

The target of another data set is T8, H1 (Homo sapiens, UniProt P35367).
T8 construct: Eurofins Cerep (contract screen)
As to the kind of experiment: Eurofins Cerep binding screen H1. Particulars: 10^−6 M; read-out: % Inhibition of control binding H1.

The nature of data set [4]: Water solubility (statement). Format: physicochemical.
Data set [5] in a line: Pharmacokinetics after i.p. administration in mice. Format: in vivo, CD-1 mice.
Procedure: A group of 32 adult male mice (CD-1, 18-21 g) were used in the experiment.
During the habituation period the groups of 4 mice were kept in a plastic cage (252 mm x 167 cm x
140 cm) at a controlled room temperature (22±2°C), humidity (55±10%), full spectrum cold white light
access to standard laboratory pellet and tap water.
administered by an intraperitoneal (i.p.) administration at a dose of 5 mg/kg. Blood samples were collected
administration. The blood and brain samples were collected under general anesthesia induced by i.p.
injections of 50 mg/kg ketamine plus 8 mg/kg xylazine. The blood samples were taken into heparinized
tubes, immediately centrifuged at 3500 rpm for 10 min and plasma was collected. The brain and plasma
samples were immediately frozen at - 80°C for LC/MS/MS analysis.
Pharmacokinetic parameters were calculated by a non-compartmental approach from the average
elimination rate constant (λz) was calculated by linear regression of time versus log concentration. Next, the
area under the mean serum and tissue concentration versus time curve (AUC0→t) was estimated using the
log-linear trapezoidal rule (Eq. 1), where Cn is the concentration of last sampling of each compound.
Area under the first-moment curve (AUMC0→t) was estimated by calculation of the total area under the
first-moment curve using the equation 2, where tn is the time of last sampling.
Mean residence time (MRT) was calculated as:
Total clearance (ClT) was calculated as:
Volume of distribution (Vd) was calculated as:
The quantification of studied compound in plasma and brain samples was done using UPLC Agilent 1100
system (Agilent Technologies, Waldbronn, Germany) coupled to the triple quadrupole mass spectrometer
API 2000 (ABSciex, Framingham, Massachusetts, USA) equipped with electrospray ion source. After
Milford, Massachusetts, USA) analytical column. The mobile phase consisted of ACN with 0.1% formic
acid (A) and water with 0.1% formic acid (B) were delivered in gradient elution started with 90% of eluent
B, increasing during 2 min to 90% of eluent A, maintained to 3 min, and then returned during 5 min to 90% of
eluent B, and maintained 90% of eluent B during 5 min at a flow rate of 300 µL/min. The total time of
analysis was 10 min. Electrospray ionization process was performed in positive ionization and the data
(nebivolol). The ion spray source settings were as follows: spray voltage: 5.5 kV, heater temperature:
400°C, curtain gas: 20 psi, source gas 1: 40 psi, source gas 2: 20 psi.
For data set [6], the system named is MK-801 induced impairment in novel object recognition. As to the kind of experiment: Novel object recognition test, reversal of MK-801 induced impairment. Details: species or system Albino Swiss mice. To be noted: mouse, in vivo.
Procedure: The experiment was conducted on Albino Swiss mice (see Supporting Information).
trained and tested in a black, plastic, open field (50 × 30 cm, 35 cm high) with the floor divided into 20-cm
The open field was in a dark room illuminated only by a 25 W bulb. On the first day
(adaptation) the animals were allowed to explore the open field for 10 min. On the next day (training, T1) the
animals were administered the tested drugs, placed in the apparatus and allowed to explore two identical
objects (cylindrical objects with walls painted white, 7 cm in diameter, 11 cm high) for the time required to
complete 15 s of exploration of either object. For the retention trial (T2) conducted one h later, one of the
objects presented in T1 was replaced with a novel object (a prism-shaped object with walls painted black,
5 cm wide, 14 cm high). The duration of exploration of each object (i.e., sitting in close proximity to the
objects or sniffing or touching them) during 5 min time was video recorded and measured separately by a
trained observer. All drugs were administered before the training (T1) session.

The source of these data is publication PMC5431432, “Low-basicity 5-HT7 Receptor Agonists Synthesized Using the van Leusen Multicomponent Protocol” (Scientific Reports, 2017).

As a reminder, the IC50 is the concentration at which inhibition is half-maximal. Low values mean greater potency, high ones weaker potency. Usually inhibition stands for the drop in the measured response relative to a control, in per cent. The EC50 is the concentration needed to bring the measured effect to its halfway point. A word on the MRT: it is the average time that molecules of a dose stay in the body. By Tmax is commonly meant the time from dosing to the highest level. A word on the Vd/F: it is the apparent distribution volume after extravascular dosing.

“Also recorded” adds a separate entry of the source. Read-outs that look alike come from different tables or passages of the source. Bounds are passed on as bounds.

Sequence of human 5-HT7 receptor (P34969 1-432 limits assumed): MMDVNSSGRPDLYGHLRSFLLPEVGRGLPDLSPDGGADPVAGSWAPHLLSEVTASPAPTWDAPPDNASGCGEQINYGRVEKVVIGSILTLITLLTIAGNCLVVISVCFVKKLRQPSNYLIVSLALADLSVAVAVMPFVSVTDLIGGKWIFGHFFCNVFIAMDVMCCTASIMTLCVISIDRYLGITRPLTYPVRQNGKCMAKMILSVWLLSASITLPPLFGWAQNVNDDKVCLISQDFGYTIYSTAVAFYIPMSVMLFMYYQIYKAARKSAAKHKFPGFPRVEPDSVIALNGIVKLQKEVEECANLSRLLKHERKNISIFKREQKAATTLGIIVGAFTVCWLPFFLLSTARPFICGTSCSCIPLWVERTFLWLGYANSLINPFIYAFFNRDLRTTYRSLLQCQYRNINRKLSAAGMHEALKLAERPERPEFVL
Sequence of human serotonin 5-HT7bR (P34969 1-432 limits assumed): as above
T4 sequence (P41595 whole entry, species assumed): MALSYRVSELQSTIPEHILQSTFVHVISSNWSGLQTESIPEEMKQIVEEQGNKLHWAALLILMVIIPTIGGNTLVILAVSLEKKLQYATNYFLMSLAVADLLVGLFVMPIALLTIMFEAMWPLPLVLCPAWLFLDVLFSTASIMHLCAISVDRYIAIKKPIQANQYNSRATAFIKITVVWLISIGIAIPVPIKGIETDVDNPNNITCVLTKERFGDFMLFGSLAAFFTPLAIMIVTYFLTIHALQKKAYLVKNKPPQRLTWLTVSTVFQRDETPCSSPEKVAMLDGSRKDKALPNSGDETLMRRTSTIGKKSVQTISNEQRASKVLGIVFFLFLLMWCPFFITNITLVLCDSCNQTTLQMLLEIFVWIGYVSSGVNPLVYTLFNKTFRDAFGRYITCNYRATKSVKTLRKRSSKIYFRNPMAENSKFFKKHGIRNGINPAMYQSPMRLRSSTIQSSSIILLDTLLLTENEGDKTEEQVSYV
T1 sequence (P08684 whole entry): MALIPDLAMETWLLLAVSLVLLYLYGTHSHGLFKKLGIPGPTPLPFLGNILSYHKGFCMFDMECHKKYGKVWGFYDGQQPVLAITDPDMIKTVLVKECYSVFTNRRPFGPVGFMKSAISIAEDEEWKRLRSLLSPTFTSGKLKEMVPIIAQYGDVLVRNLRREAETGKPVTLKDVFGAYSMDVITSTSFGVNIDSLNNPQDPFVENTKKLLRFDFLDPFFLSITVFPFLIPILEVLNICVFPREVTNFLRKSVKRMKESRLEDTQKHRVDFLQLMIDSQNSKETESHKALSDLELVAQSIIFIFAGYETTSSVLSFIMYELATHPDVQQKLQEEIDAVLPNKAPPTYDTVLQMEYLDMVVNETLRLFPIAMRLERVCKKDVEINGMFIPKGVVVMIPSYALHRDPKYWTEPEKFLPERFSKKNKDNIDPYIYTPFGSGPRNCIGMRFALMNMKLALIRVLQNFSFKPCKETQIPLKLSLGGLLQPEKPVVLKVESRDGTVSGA
T7 sequence (P28222 whole entry, species assumed): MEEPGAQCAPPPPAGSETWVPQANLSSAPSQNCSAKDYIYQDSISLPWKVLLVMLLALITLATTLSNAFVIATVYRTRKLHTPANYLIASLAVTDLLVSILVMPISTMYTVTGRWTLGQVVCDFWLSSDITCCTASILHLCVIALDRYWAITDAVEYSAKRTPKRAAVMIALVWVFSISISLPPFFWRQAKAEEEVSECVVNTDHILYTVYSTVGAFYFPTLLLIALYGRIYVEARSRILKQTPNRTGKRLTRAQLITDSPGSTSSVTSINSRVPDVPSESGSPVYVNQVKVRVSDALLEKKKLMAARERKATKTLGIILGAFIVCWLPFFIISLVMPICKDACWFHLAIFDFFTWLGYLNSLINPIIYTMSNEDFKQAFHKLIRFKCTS
T2 sequence (P47898 whole entry, species assumed): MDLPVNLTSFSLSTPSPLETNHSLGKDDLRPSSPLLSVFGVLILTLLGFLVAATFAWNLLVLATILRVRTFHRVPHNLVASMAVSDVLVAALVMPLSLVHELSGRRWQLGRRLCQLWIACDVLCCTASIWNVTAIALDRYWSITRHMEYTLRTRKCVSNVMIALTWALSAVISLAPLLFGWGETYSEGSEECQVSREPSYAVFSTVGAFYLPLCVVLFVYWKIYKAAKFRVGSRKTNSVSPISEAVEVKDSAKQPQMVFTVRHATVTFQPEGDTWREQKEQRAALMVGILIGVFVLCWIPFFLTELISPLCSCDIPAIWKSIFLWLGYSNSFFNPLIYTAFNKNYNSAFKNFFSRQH
T5 sequence (P35462 whole entry): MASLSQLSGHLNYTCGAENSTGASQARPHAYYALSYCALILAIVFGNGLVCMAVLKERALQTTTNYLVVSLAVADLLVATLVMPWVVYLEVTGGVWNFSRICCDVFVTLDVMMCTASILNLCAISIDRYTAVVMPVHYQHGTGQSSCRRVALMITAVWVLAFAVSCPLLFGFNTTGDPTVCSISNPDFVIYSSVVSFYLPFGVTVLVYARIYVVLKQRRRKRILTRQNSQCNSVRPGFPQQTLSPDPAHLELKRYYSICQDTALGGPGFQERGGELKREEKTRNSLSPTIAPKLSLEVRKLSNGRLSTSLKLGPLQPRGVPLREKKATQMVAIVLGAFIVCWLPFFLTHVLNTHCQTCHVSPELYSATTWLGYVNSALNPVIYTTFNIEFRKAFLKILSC
T3 sequence (P21554 whole entry, species assumed): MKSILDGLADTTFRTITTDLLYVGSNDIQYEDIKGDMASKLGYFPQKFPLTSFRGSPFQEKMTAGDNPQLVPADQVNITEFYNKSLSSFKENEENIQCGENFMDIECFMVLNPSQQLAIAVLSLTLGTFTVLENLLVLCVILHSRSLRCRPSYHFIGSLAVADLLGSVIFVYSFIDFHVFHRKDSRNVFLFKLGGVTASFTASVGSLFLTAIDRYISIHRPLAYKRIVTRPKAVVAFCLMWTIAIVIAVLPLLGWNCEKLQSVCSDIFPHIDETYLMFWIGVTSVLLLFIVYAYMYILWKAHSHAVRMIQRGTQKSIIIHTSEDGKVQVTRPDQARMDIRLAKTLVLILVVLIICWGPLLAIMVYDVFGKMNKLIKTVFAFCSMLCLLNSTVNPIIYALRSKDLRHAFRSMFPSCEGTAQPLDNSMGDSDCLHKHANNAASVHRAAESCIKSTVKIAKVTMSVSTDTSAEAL
T8 sequence (P35367 whole entry): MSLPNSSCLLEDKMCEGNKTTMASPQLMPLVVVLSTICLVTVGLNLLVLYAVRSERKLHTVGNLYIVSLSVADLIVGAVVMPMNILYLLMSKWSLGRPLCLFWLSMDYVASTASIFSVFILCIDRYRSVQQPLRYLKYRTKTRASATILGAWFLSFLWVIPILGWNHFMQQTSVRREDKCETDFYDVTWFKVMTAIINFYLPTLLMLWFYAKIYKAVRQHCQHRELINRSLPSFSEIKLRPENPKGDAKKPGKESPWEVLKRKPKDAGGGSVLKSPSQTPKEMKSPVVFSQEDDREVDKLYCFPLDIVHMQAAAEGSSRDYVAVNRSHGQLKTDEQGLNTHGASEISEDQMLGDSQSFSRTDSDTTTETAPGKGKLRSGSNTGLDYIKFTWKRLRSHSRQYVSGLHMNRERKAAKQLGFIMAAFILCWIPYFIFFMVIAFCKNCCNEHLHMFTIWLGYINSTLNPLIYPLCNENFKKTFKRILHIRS
Procedure for HEK-293 cells: (§6) The cell line was cultured in Dulbecco’s Modified Eagle’s Medium DMEM (Gibco) with 10% fetal bovine
(§7) The cells were cultured in Modified Eagle’s Medium
(§8) MEM with 100 mg/ml streptomycin and 100 U/ml penicillin, 1%, Non Essential Amino Acids (NEAA) and
(§9) solutions of examined compounds in DMSO were diluted into fresh growth medium and added into the
(§10) microplates at the final concentrations 0.1 μM – 100 μM. The well-known cytostatic compound
(§11) doxorubicin (DX) 1 μM was used as a positive control for both cell lines. Additionally, carbonyl cyanide
(§12) 3-chlorophenylhydrazone (CCCP) 10 μM was used as positive control mitochondrial toxin for hepatocytes.
(§13) Proliferation Assay, Promega) was added to the each well and the cells were incubated under the same
(§14) conditions for 4 h. The absorbance of the samples was measured using a microplate reader (PerkinElmer) at
Procedure for HepG2 cells: as §6, §7, §8, §9, §10, §11, §12, §13, §14

Take `CCn1cncc1-c1c[nH]c2ccc(OC)cc12.Cl` [1e, 3-(1-Ethyl-1H-imidazol-5-yl)-5-methoxy-1H-indole hydrochloride]: in the data set with HEK-293 cells, the “cell viability in words, HEK-293” value is on record as “the cells remained viable in all tested concentrations”. In addition, the IC50 came out at 270 nM against CYP3A4 [1] and 240 nM on CYP3A4 [3]. Also, the “% Inhibition of control binding α1” value in the data set on α1 is 5%. For the same compound, the main metabolic pathway entry in data set [2] (MS of metabolite M1) is “hydroxylation”. In addition, the CLint scaled at 50 μM in data set [2] was 3.69 mL/min/kg. For the same compound, the inhibition at 1 µM on 5-HT5A is 9%; at CB1, 8%; at 5-HT2B, 93%; at D3, 8%; at α2C, 9%; at 5-HT1B it was 24%. For the same compound, the inhibition at 1 µM on H1 amounted to 6%. In addition, in the data set on HepG2 cells, the “cell viability in words, HepG2” value is recorded as “the cells remained viable in all tested concentrations”. Besides, on human 5-HT7 receptor, the “function at the human 5-HT7 receptor” value is reported as “full agonists”. The EC50 on human 5-HT7 receptor came out at 60 nM. Moreover, at 5-HT2B, the inhibition at 0.01 µM came to 6%. The Ki on human serotonin 5-HT7bR turned out to be 30 nM. Moreover, the “water solubility in words” value in data set [4] is listed as “water soluble”.

With `CCn1cncc1-c1c[nH]c2ccc(I)cc12` [1o, 3-(1-ethyl-1H-imidazol-5-yl)-5-iodo-1H-indole], the “blood/plasma ratio compared to LP-44” value in data set [5] (1o 5 mg/kg i.p. vs LP-44 10 mg/kg i.p.) is “three-fold higher”. For the same compound, the “brain/plasma ratio compared to LP-211” value in [5] (1o 5 mg/kg i.p. vs LP-211 10 mg/kg i.p.) amounted to 9 times. Further, in data set [5] (i.p. 5 mg/kg), the Cmax brain amounted to 2723 ng/g, the “Cmax brain (molar)” value was “approx. 8 μM”, the maximum plasma concentration is 749 ng/mL and the “maximum plasma concentration (molar)” value was ~ 2.2 μM. For the same compound, in data set [5] (i.p. 5 mg/kg), the “time in which half of the compound was eliminated from the body” value was no more than 90 min. Further, in data set [5] (i.p. 5 mg/kg, brain), the t0.5 brain is given as 130 min. Further, the “last sampling time at which measurable” value in data set [5] (i.p. 5 mg/kg, plasma and brain) was 6 h. Moreover, in [5] (male, CD-1, mouse, brain, ip, i.p. 5 mg/kg, read-out: MRT brain (converted)), the MRT is 60 min. Besides, the Kp in data set [5] (male, CD-1, mouse, brain/plasma, ip, i.p. 5 mg/kg, read-out: brain to plasma ratio) came to 6.34. For the same compound, the Tmax in data set [5] (male, CD-1, mouse, ip, i.p. 5 mg/kg, plasma) is 15 min. For the same compound, in data set [5] (male, CD-1, mouse, plasma, ip, i.p. 5 mg/kg), the Vd/F came out at 46.6 L/kg. Further, in data set [5] (male, CD-1, mouse, plasma, ip, i.p. 5 mg/kg, read-out: MRT plasma (converted)), the MRT was 27 min. In addition, the “cell viability in words, HEK-293” value in the data set with HEK-293 cells is “toxic for the cells only in the highest concentration (100 μM)”. The compound also gave an IC50 on CYP3A4 [1] of 170 nM. Further, in data set [2], the CLint scaled at 50 μM amounted to 6.3 mL/min/kg. Besides, the inhibition at 1 µM at 5-HT5A came to 7%. In the data set on HepG2 cells, the “cell viability in words, HepG2” value is recorded as “toxic for the cells only in the highest concentration (100 μM)”. At human 5-HT7 receptor, the “function at the human 5-HT7 receptor” value was “full agonists” and the EC50 was determined as 19 nM. For the same compound, in data set [6], the “reversal of MK-801 induced disruption in novel object recognition” value is “active; also recorded: dose-dependently reversed MK-801-induced disruption in novel object recognition; also recorded: reversed MK-801 induced novel object recognition impairment”. At 5-HT2B, the inhibition at 1 µM was 87% and the inhibition at 0.01 µM is 7%. In addition, at human serotonin 5-HT7bR, the “selectivity over 5-HT1AR” value is 176 fold and the Ki was 6 nM. Further, the inhibition at 1 µM on 5-HT1B worked out at 40%. Further, the “water solubility in words” value in [4] was “water soluble”.
